Test results taken from ChEMBL document CHEMBL5724914, “Linking interpersonal differences in gut microbiota composition and drug biotransformation activity” (2024).

Assays:
[1] = The drug is tested on Z-025 corresponding to rabbit gut metagenome with ENA study accession number: PRJEB37062 and ENA sample accession number: ERS12561824 for biotransformation under anaerobic condition. The drug concentrations were measured over 9 timepoints collected between 0 and 24 hours of incubation by liquid-chromatography-coupled mass spectrometry (LC–MS); conditions: 2 µM
[2] = The drug is tested on Z-020 corresponding to rabbit gut metagenome with ENA study accession number: PRJEB37062 and ENA sample accession number: ERS12561819 for biotransformation under anaerobic condition. The drug concentrations were measured over 9 timepoints collected between 0 and 24 hours of incubation by liquid-chromatography-coupled mass spectrometry (LC–MS); conditions: 2 µM
[3] = The drug is tested on Z-017 corresponding to mouse gut metagenome with ENA study accession number: PRJEB37062 and ENA sample accession number: ERS12561816 for biotransformation under anaerobic condition. The drug concentrations were measured over 9 timepoints collected between 0 and 24 hours of incubation by liquid-chromatography-coupled mass spectrometry (LC–MS); conditions: 2 µM
[4] = The drug is tested on Z-028 corresponding to mouse gut metagenome with ENA study accession number: PRJEB37062 and ENA sample accession number: ERS12561827 for biotransformation under anaerobic condition. The drug concentrations were measured over 9 timepoints collected between 0 and 24 hours of incubation by liquid-chromatography-coupled mass spectrometry (LC–MS); conditions: 2 µM
[5] = human gut metagenome, 24 h, 2 µM
[6] = The drug is tested on Z-009 corresponding to pig gut metagenome with ENA study accession number: PRJEB37062 and ENA sample accession number: ERS12561809 for biotransformation under anaerobic condition. The drug concentrations were measured over 9 timepoints collected between 0 and 24 hours of incubation by liquid-chromatography-coupled mass spectrometry (LC–MS); conditions: 2 µM
[7] = The drug is tested on WLS-350 corresponding to human gut metagenome with ENA study accession number: PRJEB37062 and ENA sample accession number: ERS12561789 for biotransformation under anaerobic condition. The drug concentrations were measured over 9 timepoints collected between 0 and 24 hours of incubation by liquid-chromatography-coupled mass spectrometry (LC–MS); conditions: 2 µM
[8] = human gut metagenome, 24 h, 2 µM; remark: listed apart in the source
[9] = The drug is tested on Z-005 corresponding to metagenome with ENA study accession number: PRJEB37062 and ENA sample accession number: ERS12561805 for biotransformation under anaerobic condition. The drug concentrations were measured over 9 timepoints collected between 0 and 24 hours of incubation by liquid-chromatography-coupled mass spectrometry (LC–MS); conditions: 2 µM
[10] = The drug is tested on Z-019 corresponding to rat gut metagenome with ENA study accession number: PRJEB37062 and ENA sample accession number: ERS12561818 for biotransformation under anaerobic condition. The drug concentrations were measured over 9 timepoints collected between 0 and 24 hours of incubation by liquid-chromatography-coupled mass spectrometry (LC–MS); conditions: 2 µM
[11] = human gut metagenome, 24 h, 2 µM; remark: listed apart in the source
[12] = The drug is tested on Z-007 corresponding to rat gut metagenome with ENA study accession number: PRJEB37062 and ENA sample accession number: ERS12561807 for biotransformation under anaerobic condition. The drug concentrations were measured over 9 timepoints collected between 0 and 24 hours of incubation by liquid-chromatography-coupled mass spectrometry (LC–MS); conditions: 2 µM
[13] = human gut metagenome, 24 h, 2 µM; remark: listed apart in the source
[14] = human gut metagenome, 24 h, 2 µM; remark: listed apart in the source
[15] = human gut metagenome, 24 h, 2 µM; remark: listed apart in the source
[16] = The drug is tested on WLS-086 corresponding to human gut metagenome with ENA study accession number: PRJEB37062 and ENA sample accession number: ERS12561752 for biotransformation under anaerobic condition. The drug concentrations were measured over 9 timepoints collected between 0 and 24 hours of incubation by liquid-chromatography-coupled mass spectrometry (LC–MS); conditions: 2 µM
[17] = The drug is tested on Z-027 corresponding to metagenome with ENA study accession number: PRJEB37062 and ENA sample accession number: ERS12561826 for biotransformation under anaerobic condition. The drug concentrations were measured over 9 timepoints collected between 0 and 24 hours of incubation by liquid-chromatography-coupled mass spectrometry (LC–MS); conditions: 2 µM
[18] = human gut metagenome, 24 h, 2 µM; remark: listed apart in the source
[19] = The drug is tested on Z-006 corresponding to mouse gut metagenome with ENA study accession number: PRJEB37062 and ENA sample accession number: ERS12561806 for biotransformation under anaerobic condition. The drug concentrations were measured over 9 timepoints collected between 0 and 24 hours of incubation by liquid-chromatography-coupled mass spectrometry (LC–MS); conditions: 2 µM
[20] = The drug is tested on WLS-073 corresponding to human gut metagenome with ENA study accession number: PRJEB37062 and ENA sample accession number: ERS12561749 for biotransformation under anaerobic condition. The drug concentrations were measured over 9 timepoints collected between 0 and 24 hours of incubation by liquid-chromatography-coupled mass spectrometry (LC–MS); conditions: 2 µM
Further: call rule not given here.

With CN1CCC(=C2c3ccccc3CC(=O)c3sccc32)CC1.O=C(O)/C=C/C(=O)O [KETOTIFEN FUMARATE] the “Bacterial Biotransformation” value [1] was “Compound NOT metabolized”, the “Bacterial Biotransformation” value [2] was “Compound NOT metabolized” and the “Bacterial Biotransformation” value [3] was “Compound NOT metabolized”. For the same compound, the “Bacterial Biotransformation” value [4] was “Compound NOT metabolized”, the “Bacterial Biotransformation” value [5] was “Compound metabolized” and the “Bacterial Biotransformation” value [6] was “Compound metabolized”. For the same compound, the “Bacterial Biotransformation” value [7] was “Compound NOT metabolized”, the “Bacterial Biotransformation” value [8] was “Compound NOT metabolized” and the “Bacterial Biotransformation” value [9] was “Compound NOT metabolized”. The “Bacterial Biotransformation” value [10] was “Compound NOT metabolized”, the “Bacterial Biotransformation” value [11] was “Compound metabolized” and the “Bacterial Biotransformation” value [12] was “Compound NOT metabolized”. For the same compound, the “Bacterial Biotransformation” value [13] was “Compound NOT metabolized”, the “Bacterial Biotransformation” value [14] was “Compound metabolized” and the “Bacterial Biotransformation” value [15] was “Compound NOT metabolized”. For the same compound, the “Bacterial Biotransformation” value [16] was “Compound metabolized”, the “Bacterial Biotransformation” value [17] was “Compound NOT metabolized” and the “Bacterial Biotransformation” value [18] was “Compound NOT metabolized”. The “Bacterial Biotransformation” value [19] was “Compound NOT metabolized” and the “Bacterial Biotransformation” value [20] was “Compound metabolized”.

For CN1[C@@H]2CC[C@H]1C[C@@H](OC(=O)c1c[nH]c3ccccc13)C2 [TROPISETRON], the “Bacterial Biotransformation” value [1] was “Compound NOT metabolized”, the “Bacterial Biotransformation” value [2] was “Compound NOT metabolized” and the “Bacterial Biotransformation” value [3] was “Compound NOT metabolized”. For the same compound, the “Bacterial Biotransformation” value [4] was “Compound NOT metabolized”, the “Bacterial Biotransformation” value [5] was “Compound NOT metabolized” and the “Bacterial Biotransformation” value [6] was “Compound NOT metabolized”. For the same compound, the “Bacterial Biotransformation” value [7] was “Compound NOT metabolized”, the “Bacterial Biotransformation” value [8] was “Compound NOT metabolized” and the “Bacterial Biotransformation” value [9] was “Compound NOT metabolized”. The “Bacterial Biotransformation” value [10] was “Compound NOT metabolized”, the “Bacterial Biotransformation” value [11] was “Compound NOT metabolized” and the “Bacterial Biotransformation” value [12] was “Compound NOT metabolized”. For the same compound, the “Bacterial Biotransformation” value [13] was “Compound NOT metabolized”, the “Bacterial Biotransformation” value [14] was “Compound NOT metabolized” and the “Bacterial Biotransformation” value [15] was “Compound NOT metabolized”. The “Bacterial Biotransformation” value [16] was “Compound metabolized”, the “Bacterial Biotransformation” value [17] was “Compound NOT metabolized” and the “Bacterial Biotransformation” value [18] was “Compound NOT metabolized”. For the same compound, the “Bacterial Biotransformation” value [19] was “Compound NOT metabolized” and the “Bacterial Biotransformation” value [20] was “Compound NOT metabolized”.

For CC(C)c1nc(N(C)S(C)(=O)=O)nc(-c2ccc(F)cc2)c1/C=C/[C@@H](O)C[C@@H](O)CC(=O)[O-].CC(C)c1nc(N(C)S(C)(=O)=O)nc(-c2ccc(F)cc2)c1/C=C/[C@@H](O)C[C@@H](O)CC(=O)[O-].[Ca+2] [ROSUVASTATIN CALCIUM], the “Bacterial Biotransformation” value [1] was “Compound NOT metabolized”, the “Bacterial Biotransformation” value [2] was “Compound NOT metabolized” and the “Bacterial Biotransformation” value [3] was “Compound NOT metabolized”. For the same compound, the “Bacterial Biotransformation” value [4] was “Compound NOT metabolized”, the “Bacterial Biotransformation” value [5] was “Compound metabolized” and the “Bacterial Biotransformation” value [6] was “Compound NOT metabolized”. For the same compound, the “Bacterial Biotransformation” value [7] was “Compound metabolized”, the “Bacterial Biotransformation” value [8] was “Compound metabolized” and the “Bacterial Biotransformation” value [9] was “Compound NOT metabolized”. The “Bacterial Biotransformation” value [10] was “Compound NOT metabolized”, the “Bacterial Biotransformation” value [11] was “Compound metabolized” and the “Bacterial Biotransformation” value [12] was “Compound NOT metabolized”. The “Bacterial Biotransformation” value [13] was “Compound NOT metabolized”, the “Bacterial Biotransformation” value [14] was “Compound metabolized” and the “Bacterial Biotransformation” value [15] was “Compound NOT metabolized”. For the same compound, the “Bacterial Biotransformation” value [16] was “Compound metabolized”, the “Bacterial Biotransformation” value [17] was “Compound NOT metabolized” and the “Bacterial Biotransformation” value [18] was “Compound metabolized”. For the same compound, the “Bacterial Biotransformation” value [19] was “Compound NOT metabolized” and the “Bacterial Biotransformation” value [20] was “Compound NOT metabolized”.

For C[C@@H](c1ncncc1F)[C@](O)(Cn1cncn1)c1ccc(F)cc1F [VORICONAZOLE], the “Bacterial Biotransformation” value [1] was “Compound NOT metabolized”, the “Bacterial Biotransformation” value [2] was “Compound metabolized” and the “Bacterial Biotransformation” value [3] was “Compound NOT metabolized”. For the same compound, the “Bacterial Biotransformation” value [4] was “Compound NOT metabolized”, the “Bacterial Biotransformation” value [5] was “Compound metabolized” and the “Bacterial Biotransformation” value [6] was “Compound metabolized”. For the same compound, the “Bacterial Biotransformation” value [7] was “Compound metabolized”, the “Bacterial Biotransformation” value [8] was “Compound metabolized” and the “Bacterial Biotransformation” value [9] was “Compound metabolized”. The “Bacterial Biotransformation” value [10] was “Compound NOT metabolized”, the “Bacterial Biotransformation” value [11] was “Compound metabolized” and the “Bacterial Biotransformation” value [12] was “Compound NOT metabolized”. For the same compound, the “Bacterial Biotransformation” value [13] was “Compound metabolized”, the “Bacterial Biotransformation” value [14] was “Compound metabolized” and the “Bacterial Biotransformation” value [15] was “Compound metabolized”. The “Bacterial Biotransformation” value [16] was “Compound metabolized”, the “Bacterial Biotransformation” value [17] was “Compound NOT metabolized” and the “Bacterial Biotransformation” value [18] was “Compound metabolized”. The “Bacterial Biotransformation” value [19] was “Compound NOT metabolized” and the “Bacterial Biotransformation” value [20] was “Compound metabolized”.

With COc1ccc2cc([C@H](C)C(=O)O)ccc2c1 [NAPROXEN] the “Bacterial Biotransformation” value [1] was “Compound NOT metabolized”, the “Bacterial Biotransformation” value [2] was “Compound NOT metabolized” and the “Bacterial Biotransformation” value [3] was “Compound NOT metabolized”. For the same compound, the “Bacterial Biotransformation” value [4] was “Compound NOT metabolized”, the “Bacterial Biotransformation” value [5] was “Compound metabolized” and the “Bacterial Biotransformation” value [6] was “Compound NOT metabolized”. For the same compound, the “Bacterial Biotransformation” value [7] was “Compound metabolized”, the “Bacterial Biotransformation” value [8] was “Compound NOT metabolized” and the “Bacterial Biotransformation” value [9] was “Compound NOT metabolized”. For the same compound, the “Bacterial Biotransformation” value [10] was “Compound NOT metabolized”, the “Bacterial Biotransformation” value [11] was “Compound metabolized” and the “Bacterial Biotransformation” value [12] was “Compound NOT metabolized”. For the same compound, the “Bacterial Biotransformation” value [13] was “Compound metabolized”, the “Bacterial Biotransformation” value [14] was “Compound metabolized” and the “Bacterial Biotransformation” value [15] was “Compound metabolized”. For the same compound, the “Bacterial Biotransformation” value [16] was “Compound metabolized”, the “Bacterial Biotransformation” value [17] was “Compound NOT metabolized” and the “Bacterial Biotransformation” value [18] was “Compound metabolized”. The “Bacterial Biotransformation” value [19] was “Compound NOT metabolized” and the “Bacterial Biotransformation” value [20] was “Compound NOT metabolized”.
